Columns and labels:
subgenomic HAV RNA = assay: Subgenomic HAV RNA replicon replication in transfected Huh-7.5 cells; assay type: cell-based, hepatitis A virus
Method: FIG. 4i Inhibition of subgenomic HAV/NLuc RNA replication in the transfected Huh-7.5 cells by three different mTOR inhibitors and DAA (30 μM 2′CMA). **P<0.01 vs. DMSO control group (one-way analysis of variance with Dunnett's multiple comparison test).
In vitro transcription of HAV or HCV RNA was performed with T7 RiboMAX Express Large Scale RNA production system (Promega) according to the manufacturer's protocol. Transfection of viral RNA was carried out in Gene Pulser Xcell Total System (Bio-Rad Laboratories) as previously described^33, or with TransIT-mRNAtransfection kit (Mirus) for HAV-Luc RNA as previously described^32.
(§1) GLuc analysis of HCV replication and dual luciferase assay for analyzing the transcriptional induction were carried out according to the previously described methods^31,32. NanoLuc activity was determined with Nano-Glo Luciferase Assay System (Promega) according to the manufacture's protocol. For virus replication assays, the medium was replaced with a drug-containing medium at 1 hour post inoculation.

[1] = system: HAV expressing NanoLuc reporter (18f strain, HAV/NLuc); assay: HAV/NLuc reporter virus replication in HuH-7 cells (NanoLuc activity); assay type: cell-based, hepatitis A virus; details: for virus replication compared to rapalogs that target mTOR alone: HAV, dual mTOR/PI3K inhibitors; for virus replication level reduced to (NanoLuc activity): highest dose (10 μM); for viral replication level reduced to (NanoLuc activity): HuH-7 cells infected with HAV/NLuc, drug given 1 hour after infection, 48 hours post-infection
Method: (§2) HuH-7 cells were infected with HAV/NLuc and drugs were given 1 hour after infection. 48 hours later, NanoLuc activities were measured to evaluate the virus replication levels. In addition, WST-8 reagent (Cell Counting Kit-8, Dojindo) was used to evaluate cell viability after the drug treatment.
pHM175/18f-NLuc plasmid was prepared by PCR amplification of the NLuc open reading frame using pNL1.1 plasmid (Promega) as a template and primers containing a triglycine sequence flanked by XbaI and BamHI restriction enzyme sites. This PCR product was digested with these enzymes and ligated into similarly digested pSK-2A-Zeo-2B plasmid^36 to give pSK-2A-NLuc-2B plasmid. This plasmid was further digested with SacI/PflMI to cleave out the entire 2A-NLuc-2B fragment, which was ligated into similarly digested HM175/18f parental plasmid^37 to give pHM175/18f-NLuc reporter virus.
as §1

HAV [2] = assay: HAV-infected mouse model, viral RNA shed in feces (real-time PCR); assay type: in vivo; details: Ifnar1-/- C57BL/6 mice, 15 mg/kg orally from Day 5 after infection, daily for 14 days except Day 9 and Day 16
Method: Type-I interferon receptor (Ifnar1)-knockout C57BL/6 mice were infected by tail vein injection of the virus equivalent to 1.7×10^9 genome copy number. Pictilisib (15 mg/kg) was administered 5 days after infection and viral RNA contained in the later shed feces was quantified by real-time PCR to analyze the antiviral action of the drug (Reference 3).
The drug was orally administered from Day 5 following the infection and continuously administered daily for 14-consecutive days except Day 9 and Day 16. The viral RNA levels shed in the feces reflect the viral load in the liver and thus the viral RNA levels in the feces were quantified. As a result, the viral RNA level was reduced to about one-tenth by administration of the drug, confirming its antiviral effect (FIG. 6).
Virus: HAV-HM175 strain, 1.7×10^9 GE, iv route
Vehicle: 0.5% methyl cellulose/0.2% Tween 80
Mice: Ifnar1^−/− C57BL/6, 5 animals/group
The drug was orally administered from Day 5 following the infection for 14 consecutive days except Day 9 and Day 16. Viral level in the feces was quantified with time because it can serve as an indicator that reflects the viral level in the liver.

[3] = phase II trial; cited from earlier work
HuH-7 cells = assay: Cell viability after drug treatment (WST-8, Cell Counting Kit-8); assay type: cell-based, human; details: at concentrations that suppress virus replication
Method: as §2
MicroRNA-122 mimics were synthesized by Dharmacon and transfected as miRNA/miRNA* duplex by electroporation as previously described^33. Puromycin, Blasticidin and Ruxolitinib were purchased from InvivoGen. Pyridone 6 was obtained from EMD Millipore. Recombinant human IFN-λ1 and IFN-α and actinomycin D were purchased from Sigma-Aldrich. Recombinant human IFN-γ was obtained from PeproTech. PSI-7977 (sofosbuvir) was obtained from ChemScene and 2′-C-methyl adenosine (2′ CMA) was obtained from Santa Cruz Biotechnology. Cell viabilities were determined using Cell Counting Kit-8 (Dojindo) on 96-well plates according to the manufacturer's protocol.

HAV [4] = assay: HAV replication in Huh-7.5 cells; assay type: cell-based, hepatitis A virus; details: IRF1-dependent
Method: (§3) High-titer HAV (HM175/18f strain) was mycoplasma-free and was prepared as previously described^34. HAV infection was performed at a multiplicity of infection (MOI) of 10. SeV (Cantell strain) was obtained from Charles River Laboratories, and was inoculated at 50 U ml^−1 unless otherwise indicated. Infection with HCV-carrying Gaussia luciferase (GLuc) reporter was performed as previously described^32. DENV serotype 2 (olSa-054 strain) and ZIKV (MR-766 and AB-59 strains) were propagated in Vero, C6/36 or Huh-7.5 cells and inoculated at MOI=1 as previously described^35.
Total RNA extraction was performed using RNeasy Mini Kit (QIAGEN), QIAamp viral RNA Mini Kit (QIAGEN) or TRIzol (Thermo Fisher). HAV genomic RNA was detected by a two-step RT-qPCR analysis using SuperScript III First-Strand Synthesis System (Thermo Fisher Scientific) and iTaq Universal SYBR Green Supermix (Bio-Rad Laboratories), or Thunderbird SYBR qPCR Mix (TOYOBO). 5′-GGTAGGCTACGGGTGAAAC-3′ (SEQ ID NO:3) and 5′-[…]-3′ (SEQ ID NO:4) were used as HAV-specific primers

HCV = HCV replication in Huh-7.5 cells; assay type: cell-based, hepatitis C virus; details: RARRES3 overexpression
Method: as §3, §1

DENV = DENV replication in Huh-7.5 cells; assay type: cell-based, dengue virus; details: RARRES3 overexpression
Method: as §3
Plasmids encoding capsid and subgenomic RNA containing NS1-5 regions fused with a NanoLuc reporter flanked by 5′ and 3′ untranslated RNAs derived from DENV1 (D1/Hu/Saitama/NIID100/2014 strain) and DENV2-derived premembrane and envelope protein (olSa-054 strain) were transfected into HEK293T cells. Infectious virons secreted in the supernatant were harvested according to the previously described method^38.
Primer pair targeting DENV genomic RNA, 5′-[…]-3′ (SEQ ID NO:57) and 5′-CATCATTAAGTCGAGGGCC-3′ (SEQ ID NO:58), or primer pair targeting ZIKV genomic RNA, 5′-[…]-3′ (SEQ ID NO:59) and 5′[…]-3′ (SEQ ID NO:60) was used with RNA-direct SYBR Green Realtime PCR Master Mix (TOYOBO) to quantify DENV and ZIKV RNA abundance.

[5] = system: human rhinovirus 14 (HRV-14); assay: HRV-14 replication with RARRES3 overexpression; assay type: cell-based
HAV [6] = assay: HAV replication in cells overexpressing RARRES3 or C113S mutant (lentiviral vectors); assay type: cell-based, hepatitis A virus; details: cells overexpressing the protein

In the case of `C[C@@]1(O)[C@H](O)[C@@H](CO)O[C@H]1n1cnc2c(N)ncnc21` [2′CMA, 2′-C-methyl adenosine], the “subgenomic HAV/NLuc RNA replication” value (subgenomic HAV RNA; transfected Huh-7.5 cells, 2′CMA 30 μM) is reported as “Inhibition”.

For `Oc1cccc(-c2nc(N3CCOCC3)c3oc4ncccc4c3n2)c1` [PI-103], the “virus replication compared to rapalogs that target mTOR alone” value [1] was “one-tenth” and the “virus replication level reduced to (NanoLuc activity)” value ([1]; HAV/NLuc-infected cells) was “about one-thousandth”.

In the case of `CS(=O)(=O)N1CCN(Cc2cc3nc(-c4cccc5[nH]ncc45)nc(N4CCOCC4)c3s2)CC1` [Pictilisib], the “virus replication compared to rapalogs that target mTOR alone” value [1] is reported as “one-tenth”, the “virus replication level reduced to (NanoLuc activity)” value ([1]; HAV/NLuc-infected cells) is reported as “about one-thousandth” and the “viral RNA level in the feces reduced to” value (HAV [2]) is reported as “about one-tenth”. For the same molecule, the safety to human [3] was “confirmed to be safe to human”.

With `CCC(=O)N1CCN(c2ccc(-n3c(=O)ccc4cnc5ccc(-c6cnc7ccccc7c6)cc5c43)cc2C(F)(F)F)CC1` [Torin-1, 1-[4-[4-(1-oxopropyl)-1-piperazinyl]-3-(trifluoromethyl)phenyl]-9-(3-quinolinyl)-benzo[h]-1,6-naphthyridin-2(1H)-one] the “HAV replication (effect in words)” value ([1]; HAV/NLuc-infected cells) was “suppressed strongly”, the “viral replication level reduced to (NanoLuc activity)” value (“viral replication level reduced” for short) [1] was “one-hundredth” and the cell viability (HuH-7 cells) was “without having an influence on the cell viability”.

For `CO[C@H]1C[C@@H]2CC[C@@H](C)[C@@](O)(O2)C(=O)C(=O)N2CCCC[C@H]2C(=O)O[C@H]([C@H](C)C[C@@H]2CC[C@@H](OCCO)[C@H](OC)C2)CC(=O)[C@H](C)/C=C(\C)[C@@H](O)[C@@H](OC)C(=O)[C@H](C)C[C@H](C)/C=C/C=C/C=C/1C` [everolimus], the “viral replication level reduced” value [1] was “one-twentieth” and the cell viability (HuH-7 cells) was “without having an influence on the cell viability”.

In the case of `CO[C@H]1C[C@@H]2CC[C@@H](C)[C@@](O)(O2)C(=O)C(=O)N2CCCC[C@H]2C(=O)O[C@H]([C@H](C)C[C@@H]2CC[C@@H](O)[C@H](OC)C2)CC(=O)[C@H](C)/C=C(\C)[C@@H](O)[C@@H](OC)C(=O)[C@H](C)C[C@H](C)/C=C/C=C/C=C/1C` [rapamycin], the cell viability (HuH-7 cells) is reported as “without having an influence on the cell viability”.

In the case of `CO[C@H]1C[C@@H]2CC[C@@H](C)[C@@](O)(O2)C(=O)C(=O)N2CCCC[C@H]2C(=O)O[C@H]([C@H](C)C[C@@H]2CC[C@@H](OC(=O)C(C)(CO)CO)[C@H](OC)C2)CC(=O)[C@H](C)/C=C(\C)[C@@H](O)[C@@H](OC)C(=O)[C@H](C)C[C@H](C)/C=C/C=C/C=C/1C` [temsirolimus], the “viral replication level reduced” value [1] is reported as “one-twentieth” and the cell viability (HuH-7 cells) is reported as “without having an influence on the cell viability”.

B1: IFN-γ: Recombinant human IFN-γ obtained from PeproTech (protein, UniProt P01579 24-161, looked up)
Interferon gamma: QDPYVKEAENLKKYFNAGHSDVADNGTLFLGILKNWKEESDRKIMQSQIVSFYFKLFKNFKDDQSIQKSVETIKEDMNVKFFNSNKKKRDDFEKLTNYSVTDLNVQRKAIHELIQVMAELSPAAKTGKRKRSQMLFRG
With B1 the HAV replication (HAV [4]) was “restricted HAV replication”.

B2: RARRES3: retinoic acid receptor responder protein 3, SEQ ID NO:2, phospholipase A / acyltransferase activity (protein, listed as Homo sapiens)
chain: MASPHQEPKPGDLIEIFRLGYEHWALYIGDGYVIHLAPPSEYPGAGSSSVFSVLSNSAEVKRERLEDVVGGCCYRVNNSLDHEYQPRPVEVIISSAKEMVGQKMKYSIVSRNCEHFVTQLRYGKSRCKQVEKAKVEVGVATALGILVVAGCSFAIRRYQKKATA
With B2 the “replication of subgenomic RNA replicon” value (subgenomic HAV RNA; Huh-7.5 cells expressing RARRES3) was “suppressed”, the HCV replication (HCV) was “did not restrict” and the DENV replication (DENV) was “did not restrict”. The HRV-14 replication [5] was “did not restrict” and the HAV replication (HAV [6]) was “strongly suppressed”.

— patent publication US20210315970A1, “Hepatitis A Virus Replication Inhibitor Targeting mTOR” (Tokyo Metropolitan Institute of Medical Science, priority 2020, published 2021)
